Data reported in patent US20230203045A1, “INHIBITORS OF NEK7 KINASE” (Halia Therapeutics, Inc., priority 2020, published 2023).
pIC50: −log10 of the molar value.

Assays:
IL-1β release = test: IL-1β Release Assay; type: cell-based; details: Homo sapiens; PMA-differentiated THP-1 cells, 250 ng/mL LPS then 20 μM nigericin; cleaved IL-1β in media; read-out: I1-1β release IC50
Description: Approximately 1.5 million THP-1 cells were plated in each well of a 6-well TC plate and incubated with 40 nM PMA in RPMI (10% FBS, 1% Penstrep) for 24 hours. The media was then removed and cells were rested in RPMI (10% FBS, 1% Penstrep) for 24 hours after which time the media was removed and cells were pre-treated for 2 hours with various concentrations of compounds of interest (typically serial 3-fold dilution in RPMI+5% FBS, concentrations ranging from 1 μM to 0.5 nM) in RPMI (5% FBS). The media was again removed and cells were incubated with 250 ng/mL LPS and compounds of interest (concentrations as above) in RMPI (5% FBS) for 2 hours. The media was removed for a last time and cells were incubated with 20 μM nigericin and compounds of interest (concentrations as above) in Opti-MEM for 30 minutes. Cell media was then collected and the amount of cleaved IL-1β was determined using a JESS instrument (Protein Simple) and standard protocols. Cleaved Il-1β antibody was obtained from Cell Signaling (catalogue #83186S) and was used at 1:20 dilution in antibody diluent 2. Protein Simple 1× anti-Rabbit HRP secondary antibody was used along with Protein Simple luminol and peroxide for chemiluminescent detection. Primary antibody incubation time was increased from 30 minutes to 60 minutes.

[1] = molecular target: T1, full-length recombinant human NEK7 (Homo sapiens, UniProt Q8TDX7); test: NEK7 Enzymatic Assay; type: biochemical; details: casein substrate, [33P]-ATP, 2 hours at room temperature
T1 construct: full-length recombinant human NEK7; GST (N); purchased SignalChem Nab 09-10G; host or cells: Sf9 insect cells (baculovirus)
Description: Casein substrate (from bovine milk, hydrolyzed and partially dephosphorylated mixture of α, β and κ caseins, obtained from Sigma Aldrich, catalogue #C4765, diluted in distilled water to a final concentration of 1 mg/mL) and full-length recombinant human NEK7 (expressed by baculovirus in Sf9 insect cells using a N-terminal GST tag, obtained from SignalChem, catalogue #Nab 09-10G, 0.1 μg/μL) were mixed in assay buffer (20 mM Hepes pH 7.5, 10 mM MgCl2, 1 mM EGTA, 0.02% Brij35, 0.02 mg/ml BSA, 0.1 mM Na3VO4, 2 mM DTT, 1% DMSO). Compounds of interest (serial 3-fold dilution in DMSO from 10 μM to 0.5 nM) or vehicle (1% DMSO) were dispensed into the kinase reaction mixture by Acoustic technology (Echo550; nanoliter range). After incubation at room temperature for 20 minutes, the kinase reaction was initiated by addition of [^33P]-ATP (specific activity 10 μCi/μl) and the mixture was incubated at room temperature for 2 hours. The reaction was then stopped by spotting the reaction mixture on strips of phosphocellulose P81 paper. Following washing, the radioactivity of the P81 paper was measured and kinase activity data were expressed as the percent remaining kinase activity in test samples compared to vehicle reactions. IC50 values and curve fits were obtained using Prism (GraphPad Software).

T1 sequence (Q8TDX7 whole entry): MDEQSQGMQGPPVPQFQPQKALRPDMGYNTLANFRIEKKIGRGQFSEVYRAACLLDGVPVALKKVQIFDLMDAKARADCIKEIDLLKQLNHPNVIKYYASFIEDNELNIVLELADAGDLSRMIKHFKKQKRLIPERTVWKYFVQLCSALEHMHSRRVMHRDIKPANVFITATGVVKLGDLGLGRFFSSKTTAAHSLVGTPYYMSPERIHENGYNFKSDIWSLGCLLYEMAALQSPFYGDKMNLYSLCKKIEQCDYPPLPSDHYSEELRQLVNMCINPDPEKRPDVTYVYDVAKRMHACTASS

Row | pIC50 (IL-1β release) | pIC50 [1] | SMILES
1 | 6.70 to 7.29 |  | CC(C)(C)c1cc(NC(=O)Nc2ccc(-c3nn(C4COC4)c4ncnc(N)c34)cc2F)on1 [Example 12, 1-(4-(4-amino-1-(oxetan-3-yl)-1H-pyrazolo[3,4-d]pyrimidin-3-yl)-2-fluorophenyl)-3-(3-(tert-butyl)isoxazol-5-yl)urea]
2 | > 7.30 |  | CC(C)(C)c1cc(NC(=O)Nc2ccc(-c3nn(C4CC4)c4ncnc(N)c34)cc2F)on1 [Example 13, 1-(4-(4-amino-1-cyclopropyl-1H-pyrazolo[3,4-d]pyrimidin-3-yl)-2-fluorophenyl)-3-(3-(tert-butyl)isoxazol-5-yl)urea]
3 | > 7.30 |  | CC(C)(C)c1cc(NC(=O)Nc2ccc(-c3nn(C4CCN(C5COC5)CC4)c4ncnc(N)c34)cc2F)on1 [Example 14, 1-(4-(4-amino-1-(1-(oxetan-3-yl)piperidin-4-yl)-1H-pyrazolo[3,4-d]pyrimidin-3-yl)-2-fluorophenyl)-3-(3-(tert-butyl)isoxazol-5-yl)urea]
4 | > 7.30 |  | Nc1ncnc2c1c(-c1ccc(NC(=O)Nc3cc(C4(C(F)(F)F)CC4)no3)c(F)c1)nn2C1CC1 [Example 21, 1-(4-(4-amino-1-cyclopropyl-1H-pyrazolo[3,4-d]pyrimidin-3-yl)-2-fluorophenyl)-3-(3-(1-(trifluoromethyl)cyclopropyl)isoxazol-5-yl)urea]
5 | 6.70 to 7.29 |  | Nc1ncnc2c1c(-c1ccc(NC(=O)Nc3cc(C4(C(F)(F)F)CC4)on3)c(F)c1)nn2C1CC1 [Example 25, 1-(4-(4-amino-1-cyclopropyl-1H-pyrazolo[3,4-d]pyrimidin-3-yl)-2-fluorophenyl)-3-(5-(1-(trifluoromethyl)cyclopropyl)isoxazol-3-yl)urea]
6 | > 7.30 |  | CC(C)(C)c1cc(NC(=O)Nc2ccc(-c3nn(C4CC4)c4ccnc(N)c34)cc2F)on1 [Example 30, 1-(4-(4-amino-1-cyclopropyl-1H-pyrazolo[4,3-c]pyridin-3-yl)-2-fluorophenyl)-3-(3-(tert-butyl)isoxazol-5-yl)urea]
7 | 6.70 to 7.29 |  | CC1(c2cc(NC(=O)Nc3ccc(-c4nn(C5CC5)c5ncnc(N)c45)cc3F)on2)CC1 [Example 32, 1-(4-(4-amino-1-cyclopropyl-1H-pyrazolo[3,4-d]pyrimidin-3-yl)-2-fluorophenyl)-3-(3-(1-methylcyclopropyl)isoxazol-5-yl)]
8 | 6.30 to 6.70 | < 6.30 | CC(C)(C)c1nnc(NC(=O)Nc2ccc(-c3nn(C4CC4)c4ncnc(N)c34)cc2F)s1 [Example 33, 1-(4-(4-amino-1-cyclopropyl-1H-pyrazolo[3,4-d]pyrimidin-3-yl)-2-fluorophenyl)-3-(5-(tert-butyl)-1,3,4-thiadiazol-2-yl)]
9 | 6.70 to 7.29 |  | Nc1nccc2c1c(-c1ccc(NC(=O)Nc3cc(C4(C(F)(F)F)CC4)no3)c(F)c1)nn2C1CC1 [Example 45, 1-(4-(4-amino-1-cyclopropyl-1H-pyrazolo[4,3-c]pyridin-3-yl)-2-fluorophenyl)-3-(3-(1-(trifluoromethyl)cyclopropyl)isoxazol-5-yl)urea]
10 |  | 6.52 to 6.82 | CC(C)(O)Cn1nc(-c2ccc(NC(=O)Nc3cc(C4(C(F)(F)F)CC4)no3)c(F)c2)c2c(N)ncnc21 [Example 66, 1-(4-(4-amino-1-(2-hydroxy-2-methylpropyl)-1H-pyrazolo[3,4-d]pyrimidin-3-yl)-2-fluorophenyl)-3-(3-(1-(trifluoromethyl)cyclopropyl)isoxazol-5-yl)urea]
11 |  | 6.30 to 6.52 | CC(C)(O)Cn1nc(-c2ccc(NC(=O)Nc3cc(C4(C(F)(F)F)CC4)on3)c(F)c2)c2c(N)ncnc21 [Example 67, 1-(4-(4-amino-1-(2-hydroxy-2-methylpropyl)-1H-pyrazolo[3,4-d]pyrimidin-3-yl)-2-fluorophenyl)-3-(5-(1-(trifluoromethyl)cyclopropyl)isoxazol-3-yl)urea]
12 |  | < 6.30 | CN1CC(n2nc(-c3ccc(NC(=O)Nc4cc(C5(C(F)(F)F)CC5)on4)c(F)c3)c3c(N)ncnc32)C1 [Example 68, 1-(4-(4-amino-1-(1-methylazetidin-3-yl)-1H-pyrazolo[3,4-d]pyrimidin-3-yl)-2-fluorophenyl)-3-(5-(1-(trifluoromethyl)cyclopropyl)isoxazol-3-yl)urea]
